Read-outs that look alike come from different tables or passages of the source.
Assays:
HCT116 cells [1] = assay: Apoptosis, Annexin V / 7-AAD flow cytometry, HCT116; type: cell-based; conditions: 48 h, increase of early, late and total apoptosis
Method: (§1) Apoptosis was assessed by the detection of phosphatidylserine externalization based on Annexin V staining combined with fluorescent DNA intercalator 7-Aminoactinomycin D (7-AAD) what allowed for the discrimination between early and late apoptotic cells. The analysis was performed by flow cytometry using the Muse Annexin V & Dead Cell Kit (Luminex, USA) and the Muse Cell Analyzer (Merck, Germany), according to the manufacturer’s protocol. Cells were seeded (2 × 10^5 cells per well) in six-well plates and on the following day the analyzed compounds were added. Topotecan (Sigma-Aldrich, USA) was used as a positive control of apoptosis induction. After 48 h cells were collected by trypsinization, stained and after 20 min incubation at room temperature in the dark analyzed by flow cytometry. Three independent experiments were performed. Data were analyzed by Muse 1.5 Analysis Software (Merck, Germany).

NF-κB p65 = assay: Western blot, NF-κB p65 protein level; type: cell-based; conditions: BAY 11-7082 5 µM; both tested cell lines
Method: (§2) Cytosolic and nuclear extracts were prepared using a Nuclear/Cytosol Fractionation Kit (BioVision Research, USA). Cytosolic extracts (for NF-κBp65, NF-κBp50, COX-2, iNOS, STAT3, c-Myc, Bcl-xl, Nrf2, SOD, GSTP, EGFR, Akt, p-Akt, Keap1, IKKα/β and β-actin) or nuclear extracts (for NF-κBp65, NF-κBp50, STAT3, p-STAT3, Nrf2, p-Nrf2 and lamin) were separated on 7.5%, 10% or 12% SDS–PAGE slab gels. Then, the proteins were transferred to a nitrocellulose Immobilon-P membrane. After blocking for 2 h with 10% skimmed milk, proteins were incubated with primary antibodies against NF-κBp65, NF-κBp50, COX-2, iNOS, STAT3, p-STAT3, c-Myc, Bcl-xl, Nrf2, p-Nrf2, SOD, GSTP, EGFR, Akt, p-Akt, Keap1, IKKα/β, β-actin, and lamin. Alkaline phosphatase (AP)-labeled anti-rabbit IgG, anti-goat IgG, and anti-mouse IgG secondary antibodies (Bio-Rad Laboratories, USA), as well as horseradish peroxidase (HRP)-conjugated anti-mouse IgG (Boster Bio, USA) secondary antibodies were used in the staining reaction. Bands were visualized by the AP Conjugate Substrate Kit NBT/BCIP or the chemiluminescent HRP substrate of the Clarity ECL Kit (Bio–Rad Laboratories, USA). The amount of immunoreactive product in each lane was determined using a ChemiDoc Imaging System (Bio–Rad Laboratories, USA). Values were calculated as relative absorbance units (RQ) per mg of protein and expressed as a percentage of the control.

NF-κB p50 = assay: Western blot, NF-κB p50 protein level; type: cell-based; conditions: BAY 11-7082 5 µM; both tested cell lines
Method: as §2

DLD-1 cells [2] = assay: Cell cycle distribution, PI staining, flow cytometry, DLD-1; type: cell-based; conditions: 48 h, BAY 11-7082 5 µM, 5 in higher (doubled) concentration
Method: (§3) The analysis of the cell cycle distribution was performed by propidium iodide (PI) staining. The addition of RNase A improved the specificity of PI binding to DNA. The Muse Cell Cycle Kit (Luminex, USA) and flow cytometric detection were performed with the Muse Cell Analyzer (Merck, Germany), according to the manufacturer’s protocol. Briefly, cells were seeded (2 × 10^5 cells per well) in 6-well plates and on the following day the analyzed compounds were added. Topotecan (Sigma-Aldrich, USA) was used as a positive control of cell cycle arrest. After 48 h cells were collected by trypsinization, fixed in cold 70% ethanol and stored at –20 °C. Then, fixed cells were collected and stained with PI, subjected to 30 min incubation at room temperature in the dark and analyzed by flow cytometry. Three independent experiments were performed. Data were analyzed by Muse 1.5 Analysis Software (Merck, Germany).

DLD-1 cells [3] = assay: Apoptosis, Annexin V / 7-AAD flow cytometry, DLD-1; type: cell-based; conditions: 48 h, mainly early and total apoptotic populations enriched
Method: as §1

DLD-1 cells [4] = assay: Wound healing assay (cell migration); type: cell-based; conditions: 24 h, 4 at standard concentration (1 μM), BAY 11-7082 5 µM
Method: Cell migration was assessed by the wound healing assay. DLD-1 cells were seeded into 24-well plates (5 × 10^5 cells per well) and were grown overnight to reach confluency. A scratch was performed using a 10 μl tip, wells were rinsed twice with PBS buffer to remove detached cells, and fresh medium with reduced FBS concentration (0.5%) containing the tested compounds was added. Subsequently, representative microscopic photographs of scratch areas were taken by JuLI FL microscope (NanoEntek, South Korea) direct after the addition of compounds and after 24 h. Area covered by cells (%) was assessed using JuLI FL software and the difference in the coverage of the growth area by DLD-1 cells between 0 and 24 h time points was calculated for each well. The experiment was repeated three times. The relative effect of the tested compounds on cell migration was calculated by comparing the difference in cell coverage area between compound-treated cells and DMSO-vehicle control (tested compound [area 24 h − area 0 h] / DMSO-vehicle control [area 24 h − area 0 h]).

HCT116 cells [5] = assay: Cell cycle distribution, PI staining, flow cytometry, HCT116; type: cell-based; conditions: 48 h, BAY 11-7082 5 µM, 4 and 5 in higher (doubled) concentrations
Method: as §3

COX-2 [6] = assay: COX-2 expression (qRT-PCR mRNA, Western blot protein); type: cell-based; conditions: BAY 11-7082 5 µM; both tested cell lines
Method: as §2
Total RNA from cells was isolated with the GeneMatrix Universal DNA/RNA/Protein Purification Kit (EurX, Poland). For the qRT-PCR analyses, the Maxima SYBR Green I/ROX qPCR Master Mix (2×) (Thermo Fisher Scientific, USA) and the thermal cycler LightCycler (Roche, Germany) were used. The protocol started with 5 min of enzyme activation at 95 °C, followed by 40–50 cycles at 95 °C for 15 s, 56 °C for 20 s, 72 °C for 40 s, and final elongation at 72 °C for 5 min. Melting curve analysis was used for amplicon verification. The expression levels of TATA-box-binding protein (TBP) and porphobilinogen deaminase (PBGD) were used to normalize the data. The Pfaffl comparative method was used to calculate fold change. Primers were designed using Beacon Designer software (the sequences of primers used to analyze genes are listed in Table 2 of the supplementary materials).

COX-2 [7] = tested on: COX-2; set-up: method as in PMID 34120541; conditions: PANC-1 pancreatic cancer cells; cited from earlier work
Nrf2 signaling pathway = tested on: Nrf2 signaling pathway; set-up: method as in PMID 23085367, PMID 34120541; conditions: cited from earlier work
NF-κB = tested on: NF-κB; set-up: method as in PMID 34120541; conditions: PANC-1 pancreatic cancer cells; cited from earlier work

Structure (SMILES): Cc1ccc(S(=O)(=O)/C=C/C#N)cc1 [BAY 11-7082, reference compound]
- induction of apoptosis (HCT116 cells [1]): able to induce apoptosis
- level of NF-κBp65, compared with the studied chalcones (NF-κB p65): more potent inhibition
- level of NF-κBp50, compared with the studied chalcones (NF-κB p50): more potent inhibition
- cell cycle distribution (in words) (DLD-1 cells [2]): decrease of G1/G0 cell cycle phase
- induction of apoptosis (DLD-1 cells [3]): able to induce apoptosis
- reduction of cell migration rate (wound healing) vs DMSO-treated cells (DLD-1 cells [4]): at the same level as DMSO-treated cells
- cell cycle distribution (in words) (HCT116 cells [5]): decreased G1/G0 phases; increased S and G2/M phases
- level of COX-2, compared with the studied chalcones (COX-2 [6]): more potent inhibition

Structure (SMILES): COc1cc(O)c(CC=C(C)C)c(O)c1C(=O)/C=C/c1ccc(O)cc1 [xanthohumol]
- expression of COX-2 (COX-2 [7]): decreased
- activation of the Nrf2 signaling pathway (Nrf2 signaling pathway; HepG2 hepatoma cells): significantly increased activation
- activation of the Nrf2 signaling pathway (Nrf2 signaling pathway; PANC-1 pancreatic cancer cells): significantly increased activation
- activation of NF-κB (NF-κB): decreased the activation of NF-κB
- binding of both NF-κB subunits to DNA (NF-κB): decreased
